Data as given in patent EP4563149A1, “LURBINECTEDIN, ECUBECTEDIN AND A RELATED COMPOUND FOR USE IN THE TREATMENT OF SKIN CANCERS” (Pharma Mar, S.A., priority 2023, dated 2025).
Like-named read-outs stand apart in the source and are kept apart here.

What was measured:
[1] = tested on: RPB1 (RNA pol II elongation subunit); experiment: Immunoblotting of RPB1 in 501mel; assay type: cell-based, human; details: 24h at 5×IC50
Protocol: Cells were washed once with cold PBS, rinsed with a cell scraper, pelleted and resuspended in LSDB 0.5M buffer (0.5M KCI, 50mM Tris HCl pH 7.9, 20% Glycerol, 1% NP40, 1mM DTT, PIC). Afterwards cells were fully disrupted with 3 cycles of heat shock in liquid nitrogen and 37°C water bath and centrifugated 15min at 14,000rpm to pellet cell debris. Ten micrograms of extract were loaded on SDS-PAGE before transfer to nitro-cellulose membranes and immunoblotting.

[2] = tested on: 501mel, 501mel^VemuR and SKMEL28-derived xenografts; details: 24h after single IV dose of 1.2 mg/kg
From the text: To investigate the effects of the aforementioned tested drugs in living organisms, it was decided to examine the impact of PM14 and Compound IA on melanoma cell-derived xenograft (CDXs) mouse models. Human 501mel, 501mel^VemuR or SKMEL28 melanoma cells were subcutaneously implanted into the right flank of NSG mice.

[3] = tested on: Sk-mel-28 melanoma xenografts; details: 1.2 mg/kg intravenous
Protocol: Female athymic nu/nu mice (Harlan Laboratories Models, S.L. Barcelona, Spain or Envigo, Spain) were utilized for all experiments. Animal were housed in individually ventilated cages Sealsafe® Plus, Techmplast S.P.A.), up to ten per cage on a 12-hour light-dark cycle at 21-23 °C and 40-60 % humidity. Mice were allowed free access to irradiated standard rodent diet (Tecklad 2914C) and sterilized water. Animals were acclimated for at least 5 days prior to tumor implantation with a tumor cell suspension.
The cell line used are: • 501mel • IGR-37 • SK-Mel-28 • WM-266-4 • LOX-IMVI • 501mel^Vemur
In xenograft studies with cell lines: • Tumour volume was calculated using the equation […], where a: length (longest diameter) and b: width (shortest diameter) were measured in mm by using digital caliper (Fowler Sylvac, S235PAT). Tumour dimensions and body weights were recorded 2-3 times per week starting from the first day of treatment. • When tumors reached ca. 150-250 mm^3, tumour bearing animals (N = 8-10/group) were randomly allocated into the treatment groups, based on body weight and tumour measurements by using NewLab Oncology Software (version 2.25.06.00). • Comparison between median tumour volume of treated and placebo groups was used for evaluation of the antitumoural efficacy. • Animals were euthanized when their tumours reached ca. 1,500 mm^3 and/or severe necrosis was seen.
Treatments producing >20 % lethality and/or 20% net body weight loss were considered toxic.
In these experiments, PM14 and Compound IA, as well as placebo, were intravenously administered once per week for 3 consecutive weeks, on days 0, 7 and 14, whenever it was possible.
Table 6. Tumour volume evaluation in Sk-mel-28 melanoma xenografts with PM14 and Compound IA and placebo.

MM074 and MM029 cells = details: MM074 and MM029, 10×IC50 for 8h
Protocol: Purified RNA was subjected to library preparation and high throughput sequencing on Illumina NovaSeq as signal-read 50 base reads following manufacturer's instructions. Sequenced samples were analyzed using nf-core RNAseq pipeline v1.3, quality controlled, trimmed, and aligned to the reference human genome using HISAT2. The identification and quantification of transcripts were performed using feature Counts from subread package. Differential expressed gene (DEG) analysis were done using DeSeq2.

MM117 = experiment: Cell viability assay (PrestoBlue), 72h; details: Homo sapiens
Protocol: Cells were grown at 37°C in 5% CO2 (10% for Hermes 3A) and were regularly checked for mycoplasma contamination. […] Melanoma cell lines 501mel and SKmel28 were grown in RPMI w/o HEPES (Gibco, Invitrogen) supplemented with 10% FCS and gentamycin. Vemurafenib-resistant cells (501melVemuR and MM074VemuR) were additionally supplemented with 1.5 µM of vemurafenib. Melanoma IGR cell lines (IGR37 and IGR39) were grown in RPMI w/o HEPES (Gibco, Invitrogen) supplemented with 15% FCS and gentamycin.
(§1) To determine the IC50 (half maximal inhibitory concentration) of these cells to various inhibitors, cell viability assays were performed.
(§2) After 72h of treatment with different concentrations of the compounds, cells were treated with PrestoBlue reagent according to the manufacturer's instructions. The absorbance per well was measured with a Cellinsight CX5 microplate reader. Data were analyzed using Prism9 statistical software.

MM099 = experiment: Cell viability assay (PrestoBlue), 72h; details: Homo sapiens
Protocol: Cells were grown at 37°C in 5% CO2 (10% for Hermes 3A) and were regularly checked for mycoplasma contamination. […] Melanoma IGR cell lines (IGR37 and IGR39) were grown in RPMI w/o HEPES (Gibco, Invitrogen) supplemented with 15% FCS and gentamycin.
as §1, §2

SMILES	RPB1 (RNA pol II elongation subunit) degradation [1]	fraction of apoptotic cells (cleaved caspase-3) [2]	Median Tumour Volume ([3]; days 0, 7 and 14, day 0) [mm^3]	Median Tumour Volume ([3]; days 0, 7 and 14, day 2) [mm^3]	Median Tumour Volume ([3]; days 0, 7 and 14, day 4) [mm^3]	Median Tumour Volume ([3]; days 0, 7 and 14, day 7) [mm^3]	Median Tumour Volume ([3]; days 0, 7 and 14, day 9) [mm^3]	Median Tumour Volume ([3]; days 0, 7 and 14, day 11) [mm^3]	Median Tumour Volume ([3]; days 0, 7 and 14, day 14) [mm^3]	Median Tumour Volume ([3]; days 0, 7 and 14, day 16) [mm^3]	Median Tumour Volume ([3]; days 0, 7 and 14, day 18) [mm^3]	Median Tumour Volume ([3]; days 0, 7 and 14, day 21) [mm^3]	Median Tumour Volume ([3]; days 0, 7 and 14, day 23)	Median Tumour Volume ([3]; days 0, 7 and 14, day 25)	Median Tumour Volume ([3]; days 0, 7 and 14, day 28)	Median Tumour Volume ([3]; days 0, 7 and 14, day 32)	Median Tumour Volume ([3]; days 0, 7 and 14, day 35)	transcriptional effects compared to lurbinectedin (MM074 and MM029 cells)	IC50 (MM117) [nM]	IC50 (MM099) [nM]
COc1c(C)cc2c(c1O)[C@@H]1[C@@H]3[C@@H]4SC[C@]5(N[C@H](CO)Cc6c5oc5ccccc65)C(=O)OC[C@@H](c5c6c(c(C)c(OC(C)=O)c54)OCO6)N3[C@@H](O)[C@H](C2)N1C [Compound IA]	pronounced	significant increase	152.3	179.8	232.7	302	397.8	476.6	551.1	585.8	676.6	748.7	866.2 mm^3	906.6 mm^3	1,203.1 mm^3	1,331.3 mm^3	1,593.1 mm^3	dissimilar and fewer genes being deregulated	1.16	1.85
COc1c(C)cc2c(c1O)[C@@H]1[C@@H]3[C@@H]4SC[C@]5(N[C@H](CO)Cc6c5[nH]c5ccccc65)C(=O)OC[C@@H](c5c6c(c(C)c(OC(C)=O)c54)OCO6)N3[C@@H](O)[C@H](C2)N1C [PM14, ecubectedin]	pronounced	significant increase	152.8	184.4	235.4	326.2	401.5	510.6	632.6	671.9	822.8	884.4	1,012.5 mm^3	1,204.2 mm^3	1,516.7 mm^3				0.72	1.41
